Here are results for 16 compounds from PubChem BioAssay (NCI).

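Test compounds were applied to cells in 96-well plates for 48 hours at 5 doses. TGI: concentration producing complete growth inhibition.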

Holding throughout (assay): DTP human tumour cell line panel, 48 h
The test system of test [1] is EKVX NSCLC.
Test [2] concerns HCT-116 colon.
Test [3] deals with HL-60(TB) leukemia.
The subject of test [4] is HT29 colon.
For test [5], the system named is KM12 colon.
In test [6] the test system is LOX IMVI melanoma.
Test [7] relates to M14 melanoma.
For test [8], the system named is MALME-3M melanoma.
The test system of test [9] is NCI-H226 lung.
The test system of test [10] is NCI-H23 lung.
In test [11] the test system is NCI-H460 lung.
The test system of test [12] is OVCAR-3 ovarian.
Test [13] concerns OVCAR-4 ovarian.
The test system of test [14] is OVCAR-8 ovarian.
In test [15] the test system is RXF 393 renal.
The test system of test [16] is SF-268 CNS.
For test [17], the system named is SK-MEL-28 melanoma.
Test [18] relates to SN12C renal.
The test system of test [19] is SW-620 colon.
Test [20] concerns MDA-MB-435.

As for `Cc1ccc(NCC(=O)N2CC(=O)Nc3ccccc32)c(C)c1`, the TGI in test [1], in test [2], in test [3], in test [4], in [5] and in test [6] was above 100 µM in each case. Further, the TGI in test [7], in [8], in test [9], in [10], in [11] and in [12] was above 100 µM throughout. Moreover, the TGI in test [13], in test [14], in test [15], in test [16], in test [17] and in test [18] was above 100 µM throughout. Further, the TGI in test [19] was above 100 µM.

As to `CCOC(=O)c1nnsc1NC(=O)Nc1ccc(Cc2ccc(NC(=O)Nc3snnc3C(=O)OCC)cc2)cc1`, the concentration for total growth inhibition (TGI) in test [1], in test [2], in test [4], in test [5], in test [7] and in test [8] was above 100 µM each time. Moreover, the concentration for total growth inhibition (TGI) in test [20], in [9], in test [10], in test [11], in [12] and in test [13] was above 100 µM each time. Also, the concentration for total growth inhibition (TGI) in [14] was 76.6 µM; in test [15], 70.5 µM; in [16], above 100 µM; in [17] it was above 100 µM; in test [18], above 100 µM; in [19], above 100 µM.

As to `O=c1cc(-c2ccccc2)c2ccccc2[nH]1`, the concentration for total growth inhibition (TGI) in test [2], in test [3], in test [4], in test [5], in test [6] and in [7] was above 100 µM throughout. The TGI in [8] is 90.9 µM; in [9] it was 99.8 µM; in test [10] it was above 100 µM; in [11], above 100 µM; in test [13], above 100 µM; in test [14], above 100 µM. The TGI in test [15], in test [16], in test [17], in test [18] and in test [19] was above 100 µM throughout.

With `N#C[C@@H](c1nc2ccccc2s1)c1ncccc1[N+](=O)[O-]`, the concentration for total growth inhibition (TGI) is above 31.6 µM in [1]; 14 µM in test [2]; above 62.9 µM in test [5]; 13.9 µM in test [6]; above 31.6 µM in test [7]; above 100 µM in test [20]. In addition, the TGI in test [9] is 87.8 µM; in [10], 16.1 µM; in test [11], 14.2 µM; in [12], 10.6 µM; in test [13], above 100 µM; in test [14], 20.6 µM. Further, the concentration for total growth inhibition (TGI) in test [15], in test [16] and in [18] was above 31.6 µM throughout.

In the case of `N#CC(C#N)=C1c2ccccc2C(=NN)c2ccccc21`, the concentration for total growth inhibition (TGI) in test [4], in test [5], in test [7], in test [8], in [20] and in test [9] was above 100 µM in each case. Moreover, the TGI in test [12], in [14], in [15], in test [16], in [17] and in test [18] was above 100 µM each time. In addition, the concentration for total growth inhibition (TGI) in test [19] was above 100 µM.

`CS(=O)(=O)OC1CCC2(C#N)CCC1C2=O` (centres undefined): the TGI in test [1], in [2], in test [3], in test [4], in test [5] and in test [6] was above 100 µM in each case. In addition, the TGI in [7], in [8], in test [9], in test [10], in test [11] and in [12] was above 100 µM in each case. Besides, the TGI in [13], in test [14], in test [15], in test [16], in test [17] and in test [18] was above 100 µM in each case.

In the case of `C=C[C@@]1(C)CC[C@@H]2[C@@]3(C1)O[C@H]3CC1[C@](C)(C(=O)OC)CCC[C@@]12C` (some centres undefined), the TGI in test [1] was 38.6 µM; in test [2], 28.1 µM; in test [4], 27.1 µM; in test [5] it was above 100 µM; in [7], 39.7 µM; in test [8], 35 µM. Besides, the TGI is above 100 µM in test [20]; 57.2 µM in test [10]; 31.3 µM in test [11]; 31.9 µM in test [12]; above 100 µM in test [13]; 40.9 µM in test [14]. For the same compound, the TGI in test [15] was 33 µM; in [16] it was 38.4 µM; in test [17], 42.1 µM; in test [19] it was 41.9 µM.

On to `Cc1c2ccncc2c(C)c2c1[nH]c1ccc(OC(C)C)cc12`, for which the total growth inhibition concentration (TGI) in test [1] amounted to 2.81 µM; in test [2], 2.04 µM; in test [3] it was 4.46 µM; in test [4], 2.64 µM; in test [5], 2.86 µM; in test [6], 2.51 µM. Also, the TGI in [7] turned out to be 2.96 µM; in [8], 3.16 µM; in test [9] it was 3.05 µM; in test [10] it was 2.93 µM; in test [11] it was 2.25 µM; in [12], 2.98 µM. Besides, the total growth inhibition concentration (TGI) in test [13] was 3.14 µM; in test [14] it was 2.28 µM; in test [15], 2.76 µM; in test [16], 3.07 µM; in test [17], 3.21 µM; in test [18], 2.45 µM. Also, the total growth inhibition concentration (TGI) in test [19] amounted to 1.89 µM.

Take `CN1C2=C(CC3=C1CC(C)(C)CC3=O)C(=O)CC(C)(C)C2`: the TGI in test [1], in test [3], in [4], in test [5], in [6] and in test [7] was above 100 µM in each case. In addition, the concentration for total growth inhibition (TGI) in [9], in [10], in test [11], in test [12], in [13] and in test [14] was above 100 µM in each case. Besides, the concentration for total growth inhibition (TGI) in test [16], in test [17], in test [18] and in test [19] was above 100 µM throughout.

On to `COc1cc(C(=O)/C=C/c2ccc(OCC#N)cc2)cc(OC)c1OC`, for which the TGI in [1] is above 100 µM; in [2] it was 26.9 µM; in test [4], above 100 µM; in test [5], 32 µM; in test [8], 33 µM; in [20] it was 40.2 µM. Also, the total growth inhibition concentration (TGI) is 58.5 µM in test [9]; 43.2 µM in test [10]; 80.9 µM in [11]; 59.5 µM in test [12]; above 100 µM in test [13]; above 100 µM in test [14]. Further, the TGI in test [15] is 34.1 µM; in [16], above 100 µM; in test [17], 32 µM; in test [18], 36.3 µM; in [19] it was 37.3 µM.

As for `OCCOCCN1CCN(CCCN2c3ccccc3Sc3ccc(C(F)(F)F)cc32)CC1`, the TGI was determined as 29.2 µM in test [1]; 20.3 µM in test [2]; 7.65 µM in test [4]; 20.2 µM in test [5]; 15.1 µM in test [6]; 5.39 µM in test [7]. Besides, the TGI in [20] is 23.8 µM; in [9] it was 37.2 µM; in test [10], 31 µM; in test [11], 22.7 µM; in test [12], 33 µM; in test [13], 30.2 µM. Besides, the TGI is 30 µM in [14]; 9.85 µM in [15]; 33.1 µM in test [16]; 9.55 µM in test [17]; 26.7 µM in test [18]; 29.6 µM in test [19].

For `O=C1N=C(SC(SC2=NC(=O)C3(NN2)c2ccccc2-c2ccccc23)=C(SC2=NC(=O)C3(NN2)c2ccccc2-c2ccccc23)SC2=NC(=O)C3(NN2)c2ccccc2-c2ccccc23)NNC12c1ccccc1-c1ccccc12`, the TGI in [1], in test [2], in [4], in test [5], in [6] and in [7] was above 10 µM each time. In addition, the total growth inhibition concentration (TGI) in [8], in test [20], in [9], in [10], in [11] and in test [13] was above 10 µM in each case. The TGI in test [14], in test [15], in [16], in test [17], in test [18] and in [19] was above 10 µM each time.

Turning to `[N-]=[N+]=NC(CCl)c1cn([C@H]2C[C@H](O)[C@@H](CO)O2)c(=O)[nH]c1=O` (some centres undefined), the concentration for total growth inhibition (TGI) in test [1], in test [2], in [3], in test [4], in test [5] and in [6] was above 100 µM each time. For the same compound, the total growth inhibition concentration (TGI) in test [7], in [8], in test [9], in [10], in [11] and in test [12] was above 100 µM each time. Moreover, the total growth inhibition concentration (TGI) in test [14], in test [15], in test [17], in test [18] and in [19] was above 100 µM in each case.

Regarding `CC1=NN(c2cccc(Cl)c2)C(=N/c2nc3ccccc3s2)/C1=C\c1ccc(Cl)cc1`, the TGI in test [1] was above 100 µM; in test [2], 30.7 µM; in test [3], 54.5 µM; in test [4], 34 µM; in test [6] it was 34 µM; in [7], 52.2 µM. Moreover, the concentration for total growth inhibition (TGI) in test [9] is 43.8 µM; in [10], 39.3 µM; in [11], 34.3 µM; in test [12], 52.5 µM; in test [14] it was 39.8 µM; in test [15], 42.1 µM. Moreover, the TGI worked out at 38.6 µM in [16], 45.2 µM in test [17] and 42.3 µM in test [19].

Turning to `O=C(NNC(=S)Nc1ccccc1)c1cc(-c2ccccc2)nc2ccccc12`, the total growth inhibition concentration (TGI) in [2] was 28.5 µM; in test [4], above 100 µM; in test [5], above 100 µM; in test [7], 30.5 µM; in test [8], 82.4 µM; in test [20] it was 59.4 µM. The TGI in test [9] was 63.8 µM; in test [10], 37.9 µM; in test [11], above 100 µM; in test [12], 24.4 µM; in test [13] it was 56.2 µM; in [14] it was 57.6 µM. Further, the TGI in test [15] is 46.4 µM; in test [16], 76.3 µM; in test [17], 59.5 µM; in [18], 40.6 µM; in [19], 49.9 µM.

Turning to `CN1Cc2cc3cc4c(cc3nc2N(C)C1)OCCO4`, the total growth inhibition concentration (TGI) in [1], in test [2], in [4], in test [5], in [6] and in [7] was above 100 µM each time. Further, the concentration for total growth inhibition (TGI) in [8], in test [20], in test [9], in test [11], in test [13] and in test [14] was above 100 µM throughout. Also, the TGI in [15], in test [16], in test [18] and in test [19] was above 100 µM in each case.
